The values below come from US5474996A, “Pyrimidine derivatives” (Roussel Uclaf, priority 1991, dated 1995).

The assay addresses T1, Angiotensin II Receptor (Rattus norvegicus, UniProt P25095).
T1 construct: A fresh membrane preparation obtained from rat's liver was used; from tissue; host or cells: rat liver, fresh membrane preparation
T1 sequence (P25095 1-359): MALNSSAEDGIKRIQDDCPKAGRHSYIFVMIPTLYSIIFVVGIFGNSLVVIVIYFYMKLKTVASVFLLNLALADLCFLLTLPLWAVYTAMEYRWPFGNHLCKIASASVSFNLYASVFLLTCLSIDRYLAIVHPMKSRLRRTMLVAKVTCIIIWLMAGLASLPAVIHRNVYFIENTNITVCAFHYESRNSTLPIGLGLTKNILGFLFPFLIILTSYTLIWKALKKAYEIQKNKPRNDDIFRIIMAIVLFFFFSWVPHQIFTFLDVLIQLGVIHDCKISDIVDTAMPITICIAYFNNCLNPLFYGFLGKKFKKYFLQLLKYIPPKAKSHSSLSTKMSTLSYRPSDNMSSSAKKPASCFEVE
Nature of the assay: Test on the Angiotensin II Receptor: displacement of 125I angiotensin II from a fresh rat liver membrane preparation. The class given is binding. The note with it: rat liver membranes; 125I angiotensin II (25,000 DPM/tube); Tris buffer pH 7.4; 25° C. for 150 minutes; 7 concentrations; read-out: 50% inhibiting concentration (IC50), concentration necessary to displace 50% of the radioactivity specifically fixed on the receptor. As to the method: A fresh membrane preparation obtained from rat's liver was used and the tissue was ground in a polytron in a Tris 50mMpH 7.4 buffer. The grinding was followed by 3 centrifugations at 30,000 g for 15 minutes with intermediate collection of pellets in the Tris buffer pH 7.4. The last pellets were suspended in an incubation buffer (Tris 20 mM, NaCl […], KCl 10 mM, glucose 5 mM, MgCl2 10 mM, PMSF 0.3 mM, bacitracin 0.1 mM, BSA 0.2%). The 2 ml of aliquoted fractions were distributed in hemolysis tubes and ^125 I angiotensin II (25,000 DPM/tube) and the product to be studied were added. The product was first tested at 3×10^-5 M in triplicate. When the product to be tested displaced more than 50% of the radioactivity specifically linked to the receptor, it was tested again in a range of 7 concentrations to determine the concentration which inhibited 50% of the radioactivity specifically linked to the receptor. In this way, the 50% inhibiting concentration was determined.
The non-specific bond was determined by the addition of the product of Example 94 of the European Patent No. 0,253,310, at 10^-5 M (in triplicate). Incubation took place at 25° C. for 150 minutes, followed by returning to a water bath at 0° C. for 5 minutes, vacuum filtration, rinsing with Tris buffer pH 7.4 and counting the radioactivity in the presence of scintilling Triton. […]

`CCCCc1nc(Cl)c(CC(=O)O)c(Cc2ccc(-c3ccccc3C(=O)O)cc2)n1` [Example 8, 2-butyl-4-[(2'-carboxy-(1,1'-biphenyl)-4-yl)-methyl)-6-chloro-5-pyrimidineacetic acid]: the IC50 came out at 0.242 µM.
